Our source for the TGI and GI50 values is PubChem BioAssay (NCI).

Assay in all cases: NCI-60 cell line screen, 48 h
For assay [1], the system named is DU-145 prostate.
Assay [2] relates to HCT-116 colon.
Assay [3] has as its system M14 melanoma.
The subject of assay [4] is MCF7 breast.
The test system of assay [5] is NCI-H460 lung.
Assay [6] concerns OVCAR-4 ovarian.
The test system of assay [7] is OVCAR-5 ovarian.
For assay [8], the system named is SF-539 CNS.
The subject of assay [9] is SK-OV-3 ovarian.
Assay [10] concerns SR leukemia.

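Dose response: 5 concentrations. Exposure: 48 h. Format: 96-well plates. Endpoint: linear interpolation; highest concentration if not reached. GI50 = concentration required for 50% inhibition of growth. TGI: total growth inhibition.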 Where only a bound is given, the exact number is not on record here.

With `C=C(C)C1CC/C(C)=C/CCC2(C)OC2CC/C(CO)=C\C1O` (stereo not drawn), the TGI in assay [1], in assay [2], in assay [3], in assay [4], in [5] and in assay [6] was more than 100 µM in each case. The TGI in assay [7], in assay [8], in assay [9] and in [10] was more than 100 µM in each case.

For the compound `C=CCC(N[C@@H](CO)c1ccccc1)c1cn(Cc2ccccc2Cl)c(=O)n(Cc2ccccc2Cl)c1=O` (stereo partly drawn), the GI50 in assay [1] is more than 100 µM; in assay [2] it was 87.3 µM; in [3] it was more than 100 µM; in [4], more than 100 µM; in [5], more than 100 µM; in [6], more than 100 µM. Moreover, the GI50 in [7], in [8], in assay [9] and in assay [10] was more than 100 µM throughout. Moreover, the TGI in [1], in assay [2], in assay [3], in [4], in assay [5] and in [6] was more than 100 µM throughout. Also, the TGI in assay [7], in assay [8], in assay [9] and in assay [10] was more than 100 µM throughout.

As for `O=C1/C(=C\c2ccc(F)cc2)CN(C(=O)c2ccccc2)C/C1=C\c1ccc(F)cc1`, the GI50 is 0.428 µM in assay [2]; 2.05 µM in assay [3]; 0.841 µM in [4]; 1.84 µM in assay [6]; 2.64 µM in [7]; 2.56 µM in [8]. Also, the GI50 in assay [9] is 5.95 µM; in assay [10], 0.484 µM. For the same compound, the TGI was determined as 1.71 µM in assay [2]; 4.65 µM in assay [3]; 4.31 µM in assay [4]; 18.1 µM in assay [6]; 11.7 µM in [7]; 7.58 µM in [8]. Also, the TGI came to 19.5 µM in assay [9] and 26.8 µM in assay [10].

For the compound `Cc1cc(Nc2ccc(OCc3ccccc3)cc2)nc2cc(O)ccc12`, the GI50 in assay [1] is 11.9 µM; in [2], 4 µM; in [3], 2.39 µM; in [4], 3.32 µM; in [5] it was 3.09 µM; in assay [6] it was 8.74 µM. Further, the GI50 in assay [7] was 4.66 µM; in [8] it was 2.08 µM; in assay [9], 13.4 µM; in [10], 3.26 µM. In addition, the TGI in [1] worked out at 25.4 µM; in [2] it was 14.6 µM; in assay [3] it was 6.15 µM; in assay [4] it was 14.2 µM; in assay [5] it was 10.2 µM; in assay [6], 22.6 µM. For the same compound, the TGI in assay [7] is 18.4 µM; in assay [8], 4.93 µM; in assay [9], 26.7 µM; in assay [10], 13.8 µM.

With `CCCCCCCC/C=C/CCCCCCCC1=NC(C)(C)CN1CC(C)O` (stereo not drawn), the GI50 was 1.71 µM in assay [1]; 1.84 µM in assay [2]; 1.79 µM in assay [3]; 1.85 µM in [4]; 1.94 µM in assay [5]; 3.08 µM in assay [6]. Also, the GI50 is 3.6 µM in assay [7], 1.7 µM in assay [8], 7.64 µM in [9] and 0.7 µM in [10]. Further, the TGI in assay [1] turned out to be 3.09 µM; in [2], 3.32 µM; in [3], 3.35 µM; in assay [4] it was 3.62 µM; in [5] it was 3.64 µM; in assay [6] it was 11.1 µM. Besides, the TGI in assay [7] turned out to be 10.4 µM; in [8], 3.09 µM; in assay [9], 21.1 µM; in assay [10], 2.65 µM.

Turning to `C=C1CC2CCCC12C=O` (stereo not drawn), the TGI in assay [1], in [2], in [3], in assay [4], in assay [6] and in assay [8] was more than 10 µM throughout. Moreover, the TGI in assay [9] and in assay [10] was more than 10 µM throughout.

Consider `C[C@]12CCc3nc(Nc4cccc(O)c4)sc3C1=CC[C@@H]1[C@@H]2CC[C@]2(C)/C(=N\NC(N)=S)CC[C@@H]12`, for which the GI50 in assay [2] was 1.34 µM; in assay [3], 1.96 µM; in assay [4], 1.52 µM; in assay [5] it was 1.96 µM; in [7], 2.6 µM; in [8], 0.464 µM. The GI50 in [9] is 3.21 µM. For the same compound, the TGI in [2] was 2.69 µM; in assay [3] it was 5 µM; in assay [4], 3.13 µM; in assay [5], 4.05 µM; in assay [7], 7.77 µM; in assay [8], 1.84 µM. Moreover, the TGI in assay [9] was found to be 22 µM.

With `O=C(O)/C=C/C(=O)N1Cc2cc3ccccc3nc2C1`, the TGI in assay [1], in [2], in assay [3], in assay [4], in [5] and in assay [7] was more than 100 µM in each case. Besides, the TGI in assay [8], in assay [9] and in assay [10] was more than 100 µM each time.

Turning to `CC[C@H]1CN2CCc3cc(OC)c(OC)cc3C2C[C@@H]1CC1NCCc2cc(OC)c(OC)cc21` (stereo partly drawn), the TGI in assay [1] turned out to be 0.105 µM; in [2] it was 0.0491 µM; in assay [3], 0.0487 µM; in assay [4], 1.22 µM; in assay [5] it was 0.112 µM; in assay [6], 0.0481 µM. The TGI in assay [7] came out at 0.645 µM; in assay [9], 0.292 µM. Besides, in [4], the GI50 was 0.0146 µM.

Take `Cc1c(O)c2ccccc2oc1=O`: the TGI in [1], in [2], in [3], in assay [4], in assay [5] and in assay [6] was more than 100 µM in each case. For the same compound, the TGI in [7], in [8] and in assay [10] was more than 100 µM each time.

For the compound `Nc1cc(F)ccc1CC(=O)O`, the TGI in assay [1], in [2], in assay [3], in assay [4], in assay [7] and in [8] was more than 100 µM throughout. Besides, the TGI in [9] and in assay [10] was more than 100 µM throughout.
